Read-outs that look alike come from different tables or passages of the source.
What was measured:
Assay type in all cases: in vivo
[1] = tested on: Aphis gossypii; test: Aphis gossypii test (Example A), cotton, spraying upper side of leaf; settings: active compound 24 g/ha, spray volume 600 l/ha
Protocol: To produce a suitable preparation of active compound, 1 part by weight of active compound is mixed with the stated amounts of solvent and emulsifier, and the concentrate is diluted with water to the desired concentration. If addition of ammonium salts, phosphonium salts or penetrants is required, the appropriate amount is added by pipette after dilution of the respective finished preparation solution.
Single-leaf cotton plants (Gossypium hirsutum) which are heavily infested by the cotton aphid (Aphis gossypii) are treated by spraying of the upper side of the leaf (spray volume 600 l/ha) with the active compound preparation at the desired concentration.
(§1) After the desired period of time, the kill in % is determined. 100% means that all animals have been killed; 0% means that none of the animals have been killed.

[2] = tested on: Myzus persicae; test: Myzus persicae test (Example D), bell pepper plants sprayed; settings: for pest or weed control at 0.16 ppm / pest or weed control at 0.8 ppm / pest or weed control at 4 ppm: Myzus persicae, 144 h, read-out: Kill rate after 6 days, Without penetrant and AS; for Kill rate after 6 days, With penetrant and AS: with penetrant and AS (in each case 1000 ppm)
Protocol: (§2) To produce a suitable preparation of active compound, 1 part by weight of active compound is mixed with the stated amounts of solvent and emulsifier, and the concentrate is diluted with emulsifier-containing water to the desired concentration. If addition of ammonium salts or ammonium salts and penetrant is required, the appropriate amount is added by pipette after dilution of the respective finished preparation solution (in each case 1000 ppm).
Bell pepper plants (Capsicum annuum) which are heavily infested by the green peach aphid (Myzus persicaei) are treated by spraying with the active compound preparation at the desired concentration.
as §1

[3] = tested on: Aphis gossypii; test: Aphis gossypii test (Example E), cotton leaves sprayed; settings: for Kill rate after 6 days, With penetrant and AS: with penetrant and AS (in each case 1000 ppm)
Protocol: as §2
Cotton leaves (Gossypium hirsutum) which are heavily infested by the cotton aphid (Aphis gossypii) are sprayed with an active compound preparation at the desired concentration.
After the desired period of time, the kill in % is determined. 100% means that all aphids have been killed; 0% means that none of the aphids have been killed.

[4] = tested on: Myzus persicae; test: Myzus persicae test (Example F), bell pepper, spraying underside of leaf; settings: active compound 0.48 g/ha
Protocol: as §2, with “with” for “with emulsifier-containing”
Single-leaf bell pepper plants (Capsicum annuum) which are heavily infested by the green peach aphid (Myzus persicaei) are treated by spraying of the underside of the leaf with the active compound preparation at the desired concentration.
as §1

[5] = tested on: Aphis gossypii; test: Aphis gossypii test (APHIGO contact) (Example H), cotton, spraying underside of leaf; settings: active compound 0.192 g/ha
Protocol: as §2, with “with” for “with emulsifier-containing”
Single-leaf cotton plants (Gossypium hirsutum) which are heavily infested by the cotton aphid (Aphis gossypii) are treated by spraying of the underside of the leaf with the active compound preparation at the desired concentration.
as §1

[6] = tested on: Myzus persicae; test: Myzus persicae test (Example G), bell pepper, spraying upper side of leaf; settings: active compound 2.4 g/ha
Protocol: as §2, with “with” for “with emulsifier-containing”
Single-leaf bell pepper plants (Capsicum annuum) which are heavily infested by the green peach aphid (Myzus persicaei) are treated by spraying of the upper side of the leaf with the active compound preparation at the desired concentration.
as §1

[7] = tested on: Aphis gossypii; test: Aphis gossypii test (APHIGO translaminar) (Example I), cotton, spraying upper side of leaf; settings: active compound 0.192 g/ha
Protocol: as §2, with “with” for “with emulsifier-containing”
Single-leaf cotton plants (Gossypium hirsutum) which are heavily infested by the cotton aphid (Aphis gossypii) are treated by spraying of the upper side of the leaf with the active compound preparation at the desired concentration.
as §1

[8] = active compound 0.16 ppm, 6 days
[9] = Aphis gossypii, 144 h, read-out: Kill rate after 6 days, Without penetrant and AS
[10] = active compound 0.8 ppm, 6 days
[11] = with penetrant and AS (in each case 1000 ppm)
[12] = active compound 0.16 ppm, without penetrant and AS, 6 days
[13] = Aphis gossypii, 144 h, active compound 0.16 ppm, without penetrant and AS, 6 days, read-out: Kill rate after 6 days, Without penetrant and AS
[14] = active compound 0.8 ppm, without penetrant and AS, 6 days
[15] = Aphis gossypii, 144 h, active compound 0.8 ppm, without penetrant and AS, 6 days, read-out: Kill rate after 6 days, Without penetrant and AS

## CON/C(=N\[N+](=O)[O-])NCc1cnc(Cl)s1 [(Ib-3)]
[1]; with ammonium sulphate 1 g/l
  Kill rate after 3 days, With AS 1 g/l: 99%
[1]; without ammonium sulphate
  Kill rate after 3 days, Without AS: 77%

## CN1COCN(Cc2cnc(Cl)s2)/C1=N/[N+](=O)[O-] [Ia-1, thiamethoxam, reference compound]
[2]
  pest or weed control at 0.16 ppm: 10%
[2]; [8]
  Kill rate after 6 days, With penetrant and AS: 85%
[3]; [9]
  pest or weed control at 0.16 ppm: 0%
[3]; [8]
  Kill rate after 6 days, With penetrant and AS: 40%

## CN/C(=N\[N+](=O)[O-])NCc1cnc(Cl)s1 [Ia-2, clothianidin, reference compound]
[2]
  pest or weed control at 0.8 ppm: 60%
[2]; [10]
  Kill rate after 6 days, With penetrant and AS: 100%

## N#C/N=C1\SCCN1Cc1ccc(Cl)nc1 [Ia-3, thiacloprid, reference compound]
[2]
  pest or weed control at 0.16 ppm: 0%
[2]; [8]
  Kill rate after 6 days, With penetrant and AS: 50%
[3]; [9]
  pest or weed control at 0.16 ppm: 0%
[3]; [8]
  Kill rate after 6 days, With penetrant and AS: 70%

## CN/C(=N\[N+](=O)[O-])NCC1CCOC1 (stereo not drawn) [Ia-4, dinotefuran, reference compound]
[2]
  pest or weed control at 4 ppm: 10%
[2]; active compound 4 ppm, 6 days
  Kill rate after 6 days, With penetrant and AS: 80%
[3]; [9]
  pest or weed control at 0.8 ppm: 0%
[3]; [10]
  Kill rate after 6 days, With penetrant and AS: 35%

## C/C(=N\C#N)N(C)Cc1ccc(Cl)nc1 [Ia-5, acetamiprid, reference compound]
[2]
  pest or weed control at 0.16 ppm: 0%
[2]; [8]
  Kill rate after 6 days, With penetrant and AS: 90%

## CCN(Cc1ccc(Cl)nc1)/C(=C/[N+](=O)[O-])NC [Ia-6, nitenpyram, reference compound]
[2]
  pest or weed control at 0.8 ppm: 10%
[2]; [10]
  Kill rate after 6 days, With penetrant and AS: 90%
[3]; [9]
  pest or weed control at 0.8 ppm: 25%
[3]; [10]
  Kill rate after 6 days, With penetrant and AS: 99%

## O=[N+]([O-])/N=C1\NCCN1Cc1ccc(Cl)nc1 [Ia-7, imidacloprid, reference compound]
[2]
  pest or weed control at 4 ppm: 40%
[2]; active compound 4 ppm, 6 days
  Kill rate after 6 days, With penetrant and AS: 100%
[3]; [9]
  pest or weed control at 4 ppm: 15%
[3]; active compound 4 ppm, 6 days
  Kill rate after 6 days, With penetrant and AS: 95%

## O=[N+]([O-])/N=C1\NCCN1Cc1cnc(Cl)s1 [Ia-8, imidaclothiz, reference compound]
[3]; [9]
  pest or weed control at 0.8 ppm: 65%
[3]; [10]
  Kill rate after 6 days, With penetrant and AS: 95%

## CN1CN(C)/C(=N\[N+](=O)[O-])N(Cc2cnc(Cl)s2)C1 [Ia-9, AKD-1022]
[2]
  pest or weed control at 0.8 ppm: 70%
[2]; [10]
  Kill rate after 6 days, With penetrant and AS: 100%
[3]; [9]
  pest or weed control at 0.8 ppm: 80%
[3]; [10]
  Kill rate after 6 days, With penetrant and AS: 100%

## C/N=C(\C(=C/N(C)C)[N+](=O)[O-])N(C)Cc1ccc(Cl)nc1 [Ic-1]
[4]; [11]
  Kill rate after 7 days, With penetrant and AS: 67%
[4]; without penetrant and AS
  Kill rate after 7 days, Without penetrant and AS: 0%
[2]
  pest or weed control at 0.8 ppm: 0%
[2]; [10]
  Kill rate after 6 days, With penetrant and AS: 95%
[3]; [9]
  pest or weed control at 0.8 ppm: 5%
[3]; [10]
  Kill rate after 6 days, With penetrant and AS: 60%
[5]; [11]
  Kill rate after 7 days, With penetrant and AS: 70%
[5]; without penetrant and AS
  Kill rate after 7 days, Without penetrant and AS: 0%
[6]; [11]
  Kill rate after 7 days, With penetrant and AS: 53%
[6]; without penetrant and AS
  Kill rate after 7 days, Without penetrant and AS: 0%

## CN/C(=C\[N+](=O)[O-])C(C)c1ccc(Cl)nc1 (stereo not drawn) [Id-1]
[2]
  pest or weed control at 0.8 ppm: 0%
[2]; [10]
  Kill rate after 6 days, With penetrant and AS: 90%
[3]; [9]
  pest or weed control at 0.8 ppm: 0%
[3]; [10]
  Kill rate after 6 days, With penetrant and AS: 55%

## O=C/C(=C1/NCCN1Cc1ccc(Cl)nc1)[N+](=O)[O-] [Ie-2]
[2]
  pest or weed control at 0.16 ppm: 10%
[2]; [8]
  Kill rate after 6 days, With penetrant and AS: 95%
[3]; [9]
  pest or weed control at 0.16 ppm: 10%
[3]; [8]
  Kill rate after 6 days, With penetrant and AS: 95%

## CN(Cc1ccc(Cl)nc1)C1=CC(=O)OC1 [If-1]
[7]; [11]
  Kill rate after 7 days, With penetrant and AS: 70%
[7]; without penetrant and AS
  Kill rate after 7 days, Without penetrant and AS: 0%
[2]; [12]
  pest or weed control at 0.16 ppm: 20%
[2]; [8]
  Kill rate after 6 days, With penetrant and AS: 85%
[3]; [13]
  pest or weed control at 0.16 ppm: 30%
[3]; [8]
  Kill rate after 6 days, With penetrant and AS: 75%

## O=C1C=C(NCc2ccc(Cl)nc2)CO1 [If-2]
[2]; [12]
  pest or weed control at 0.16 ppm: 0%
[2]; [8]
  Kill rate after 6 days, With penetrant and AS: 50%
[3]; [13]
  pest or weed control at 0.16 ppm: 0%
[3]; [8]
  Kill rate after 6 days, With penetrant and AS: 50%

## C=CCN(CCN/C(=C/[N+](=O)[O-])SC)Cc1ccc(Cl)nc1 [Ih-1]
[2]; [14]
  pest or weed control at 0.8 ppm: 20%
[2]; [10]
  Kill rate after 6 days, With penetrant and AS: 98%
[3]; [15]
  pest or weed control at 0.8 ppm: 5%
[3]; [10]
  Kill rate after 6 days, With penetrant and AS: 95%

## C#CCN(CCN/C(=C/[N+](=O)[O-])OC)Cc1ccc(Cl)nc1 [Ih-2]
[2]; [14]
  pest or weed control at 0.8 ppm: 80%
[2]; [10]
  Kill rate after 6 days, With penetrant and AS: 98%
[3]; [15]
  pest or weed control at 0.8 ppm: 65%
[3]; [10]
  Kill rate after 6 days, With penetrant and AS: 90%

## C#CCN(CCN/C(=N/[N+](=O)[O-])OC)Cc1ccc(Cl)nc1 [Ih-3]
[3]; [15]
  pest or weed control at 0.8 ppm: 15%
[3]; [10]
  Kill rate after 6 days, With penetrant and AS: 55%

## CS/C(=N\[N+](=O)[O-])NCCN(Cc1ccc(Cl)nc1)CC1CC1 [Ih-4]
[3]; [15]
  pest or weed control at 0.8 ppm: 15%
[3]; [10]
  Kill rate after 6 days, With penetrant and AS: 45%

Source: US20090105235A1, “INSECTICIDAL COMPOSITIONS WITH IMPROVED EFFECT” (Bayer CropScience AG, priority 2005, published 2009)
